Format in all cases: cell-based
Assay [1] deals with J774A.1 cells. Description: In vitro photosensitizing efficacy in J774A.1 cells, high Gal-1 expression (MTT). As for the experimental part:
(§1) For determining photosensitizing efficacy in B16-F1 and J774A.Cell were plated at 1×10^4 and 2×10^4 cells per well respectively in 96 well plates. After overnight incubation, compounds 1 and 4 at the same concentration (0-2 μM) were added. After further 3 hr incubation, cells were washed with PBS and irradiated with white light (0-4 joules). […] The cells were then incubated in complete media for 48 hrs and assayed for survival using the standard MTT assay.

Assay [2] has as its system B16-F1 cells. Description: In vitro photosensitizing efficacy in B16-F1 cells, low Gal-1 expression (MTT). The following applies: free lactose (100 μM). As to the method: as §1
Assay [3] relates to J774A.1 cells. Description: Photosensitizer uptake in J774A.1 cells (fluorescence/μg protein). The following applies: 1.0 μM, 3 and 24 hrs. As to the method: In order to test the galectin-specificity of the carbohydrate conjugates, the uptake and photosensitizing efficacy of photosensitizers 1 and 4 was investigated in two cell lines; B16-F1 and J774A.1 known for low (15-20%) and high galectin-expression (80-85%) respectively 37. The cells were grown in DMEM with 10% FCS, maintained in 5% CO2, 95% air and 100% humidity. For uptake studies 1×10^6 cells were plated in 60 mm dishes. […] The cells were then gently removed from the dishes, 1.0 ml aliquots were transferred into 1 cm quartz cuvettes and their fluorescence was read on a PT1model ALBHA1 fluorimeter, at 701 nm using an excitation of wavelength of 414 nm. Protein determinations were done using Bio-rad protein assay, protein levels were determined from a standard curve. The data was represented as fluorescence/μg protein.

Here are results for one molecule from patent US6849607B2, “Galectin recognized photosensitizers for photodynamic therapy” (Health Research, Inc., priority 2001, dated 2005).

Structures are written as SMILES.

`C=C(C=CCO[C@@H]1O[C@H](CO)[C@@H](O[C@@H]2O[C@H](CO)[C@H](O)[C@H](O)[C@H]2O)[C@H](O)[C@H]1O)CN1C(=O)c2c3nc(cc4[nH]c(cc5nc(cc6[nH]c2c(c6C)C1=O)C(CC)=C5C)c(CC)c4C)C(C)C3CCC(=O)OC` (mixture of isomers) [4a, Lactose-Chlorin conjugate joined with diene linkage]: the “PDT efficacy on addition of free lactose” value in assay [1] (free lactose (100 μM)) and in assay [2] was “almost completely inhibited” each time. Further, the “phototoxicity compared to photosensitizer 1a” value in assay [1] (high Gal-1 expression (80-85%), 1.0 μM) is “enhanced phototoxicity”. The drug uptake result in assay [3] was “increased uptake”.
